Assay results as given in patent US8463552B1, “Methods for medicinal dosage determination and diagnosis” (priority 2005, dated 2013).

Key:
[1] = system: brain volumes of interest (BOLD signal); assay: BOLD-sensitive fMRI of anesthetized monkey during i.v. infusion of SKF82958; type: in vivo, M. fascicularis; conditions: 0.1 mg/kg total i.v. infusion from 10 to 15 min; one VOI in one subject; 1.5% isoflurane; FIG. 12
From the text: To determine how the noise levels in the simulation data just described correspond to realistic biological data, we acquired data using BOLD-sensitive fMRI imaging of an anesthetized monkey with administration of the dopamine agonist SKF82958. Experiments were approved in advance by the Washington University Animal Studies Committee and due care was exercised to prevent discomfort to the animal. During imaging sessions the animal's health was monitored by veterinary staff from the Washington University Division of Comparative Medicine. Two male M. fascicularis monkeys were studied. Imaging was done while the animals were ventilated with 1.5% isoflurane in oxygen. We obtained repeated whole-brain BOLD-sensitive fMRI images at a repetition interval of one every 3 seconds over a 40-minute period. At 10 minutes into the imaging session a steady-rate, slow intravenous infusion of the dopamine D1 agonist. SKF82958 was commenced finishing at 15 minutes, with a total administered dose of 0.1 mg/kg. […] Volumes of interest (VOIs) were traced on structural brain images acquired at the same session. These included left and right caudate, left and right putamen, striatum collectively, whole brain, and a midbrain region. Time-activity curves from each VOI were extracted and submitted to the computer method described above. […]

[2] = system: whole-brain and regional blood flow; conditions: total administered dose 0.1 mg/kg; cited from earlier work

## C=CCN1CCc2c(cc(O)c(O)c2Cl)C(c2ccccc2)C1 (stereo not shown) [SKF82958]
[1]
  Emax (magnitude of BOLD response in VOI time-activity curve): at least 20
[2]
  effect on whole-brain mean quantitative blood flow: does not affect
  effects on regional blood flow consistent with local neuronal activation: produces reliable effects
  safety of dose: safe
